Data on 1 substance can be found in US20200384072A1, “THERAPY OF IONIZING RADIATION-INDUCED DISORDERS” (SCK-CEN, priority 2019, published 2020).

One assay deals with TICAE cells. As to the kind of experiment: Intracellular ROS, CM-H2DCFDA flow cytometry, TICAE cells. To be noted: 100 μM TAT-Gap19, 0.1 Gy, 45 min. The assay is classed as cell-based, human. The protocol: TICAE and TIME cells were seeded in a 6-well plate at a density of 250000 cells/well. Three days later, cells reached 100% confluence. At 30 minutes before X-ray exposure (0.1 and 5 Gy), cells were washed with PBS to remove traces of the original medium. Afterwards, HMS supplemented with 25 mM HEPES (Sigma-Aldrich Co. LCC, Diegem, Belgium) and 10 μmol/L of the CM-H2DCFDA dye (Sigma-Aldrich Co. LCC, Diegem, Belgium) was added to the cells, and 100 μM TAT-Gap19 (Genosphere Biotechnologies, Paris, France) was added to block the Cx43 hemichannels. After irradiation, cells were washed with PBS and a 0.05% trypsin solution supplemented with 0.02% EDTA was used to detach the cells, followed by a 5 minute incubation time (37° C., 5% CO2). After trypsinization, the cells were transferred into a 1.5 mL tube and centrifuged for […] at 200 RCF. The supernatant was discard and the pellet was re-suspended in MSS without Ca2+ and Mg2+(Sigma-Aldrich Co. LCC, Diegem, Belgium). Finally, 1 μg/mL PI was added to each sample to exclude the dead cells. A positive control, 20 μmol/L tert-butyl hydroxyperoxide (tBHP), was added to the cells and incubated for 15 min. Intracellular ROS was assessed by analyzing the fluorescent signals using BD Accuri™ c6 Flow Cytometry (BD Biosciences, San Jose, Calif. USA). At least 10 000 events were measured. […]
Background: A flow cytometer gives signals particle by particle.

A further assay deals with RBE4 cells. Kind of assay: γ-H2AX counts after local 3×3 mm X-ray irradiation (irradiated and bystander zones), RBE4 cells. It counts as cell-based, rat. To be noted: 1 Gy, 3 h post-irradiation, Cbx 50 μM, Gap26 161 μM, TAT-Gap19 200 μM, Xestospongin C 5 μM. The protocol: A defined area of the cell culture dishes were exposed to X-rays (1Gy or 20 Gy) by using a small animal radiation research platform (SARRP, Xstrahl, 220 kV, 13 mA), making use of a 3×3 mm collimator. Whole dish irradiation was done using a 10×10 cm broad-beam collimator, while localized Irradiation was performed with a 3×3 mm collimator. A Gafchromic RTQA2 film, with a sensitivity of 0.02 Gy, was placed underneath the cell dishes in order to delineate the irradiated zone.
Cells were fixed for 25 min with 4% formaldehyde (VWR) and blocked for 30 min with blocking buffer (5% normal goat serum, 1% bovine serum albumin (BSA), 0.2% Triton X-100 in PBS D+). Overnight incubation with primary antibody (1/500 anti-γ-H2AX in dilution buffer, 1/10 blocking buffer in PBS D+) was followed by a 1 h incubation with 1/400 XX-biotin-goat-anti-mouse antibody in dilution buffer, followed by a 1 h incubation with 1/400 streptavidin-alexa488 in PBS D+. Nuclei were stained with 1 μg/mL DAPI in PBS D+ for 10 min and cells were kept in PBS D+ supplemented with NaN3 at 4° C. All steps except the overnight incubation which was carried out at 4° C., were carried out at room temperature and cell cultures were rinsed thoroughly with PBS D+ between all incubation steps. Imaging was performed with an automated BD Pathway 435 imaging system (10× objective, 10×10 montage resulting in an overall image size of 8.5×6.5 mm). We then quantified the number of γ-H2AX-foci positive nuclei in the directly irradiated and bystander areas and expressed the count as a percentage relative to the number of nuclei and subtracted the percentage of background γ-H2AX signal in non-irradiated paired control cultures for each experiment. For counting γ-H2AX foci, images were thresholded to remove background pixel noise below the foci level. Where applicable, results were normalized against vehicle (bar charts with a 100% vehicle bar without statistical variability or a horizontal line).

In assay [1] the test system is TIME cells. As to the kind of experiment: Dextran fluorescein (10 kDa) dye uptake cell death assay, TIME cells. The assay is classed as cell-based, human. The protocol:
Dextran fluorescein, staining late apoptotic and necrotic cells, was used to validate apoptosis in TIME cells after irradiation. Cells were seeded in a 24-well plate at a density of 1.5×10^5 cells/well in 6 biological replicates. Three days later, cells reached 100% confluence. Before X-ray exposure with 30 minutes, cells were refreshed with medium with or without 100 μM TAT-Gap19 (Genosphere Biotechnologies, Paris, France). At 6 h and 72 h after irradiation, cells were washed twice with HMS supplemented with 25 mM HEPES (Sigma-Aldrich Co. LCC, Diegem, Belgium) (HBSS-HEPES). Afterwards, the cells were incubated with 200 μM dextran fluorescein (10 kDa) (Life Technologies, Merelbeke, Belgium), dissolved in HBSS-HEPES. After six minutes, the staining was removed by washing six times with HBSS-HEPES. Finally, the fluorescence was measured using the IncuCyte ZOOM® system (Essen BioScience, Ann Arbor, Mich., USA) by using FITC channel and phase contrast to count the cells using a ×10 objective. The fluorescence signal was normalized to cell count.

The subject of assay [2] is TIME cells. Kind of assay: IGFBP-7 and GDF-15 multiplex-based assays, TIME cells. It counts as cell-based, human. To be noted: 7 d p.i. The protocol:
TICAE and TIME cells were seeded in a 6-well plate at a density of 2.5×10^5 cells/well in 5 to 6 biological replicates. Two to three days later, cells reached 100% confluence. At 30 minutes before X-ray exposure, cells were refreshed with medium with or without 100 μM TAT-Gap19 (Genosphere Biotechnologies, Paris, France). At 24 h, 48 h, 72 h and 7 d after irradiation, the supernatant was collected. Medium was changed only for the 7 d time point experiment at the fourth day with fresh medium alone or with medium supplemented with 100 μM TAT-Gap19. For the simultaneous detection of multiple cytokines in the supernatants, the Magnetic Luminex® Assay (R&D systems, Minneapolis, […]) was used following manufacturer's instructions. Briefly, supernatants, standards and microparticles were incubated into a 96-well plate which was pre-coated with cytokine-specific antibodies. The immobilized antibodies were able to bind the cytokines of interest after 2 h incubation, then the plate was washed and incubation with a biotinylated antibody cocktail specific to the cytokines of interest was performed for 1 h. A second wash was performed to remove the unbound biotinylated antibodies. Further, a streptavidin-phycoerythrin conjugate was added to each well to bind to the biotinylated antibodies. After a final wash, the microparticles were resuspended in buffer and read using the Luminex® MAGPIX Analyzer (R&D systems, Minneapolis, […]).

For “TAT-Gap19: connexin mimetic peptide, amino-acids 128-136 of the CL of Cx43 (SEQ ID NO: 2), Gap19 linked to TAT sequence; Cx43 hemichannel inhibitor (YGRKKRRQRRRKQIEIKKFK)”, the “intracellular ROS generation (flow cytometry)” value in the assay on TICAE cells was “significantly reduced intracellular ROS generation”. For the same substance, in the assay on RBE4 cells, the “γ-H2AX counts in the bystander zone (normalized to vehicle)” value is reported as “significantly inhibited” and the “γ-H2AX counts in the irradiated zone (normalized to vehicle)” value is “significantly inhibited”. Besides, the “dextran fluorescein staining (radiation-induced increase)” value in the assay on TIME cells [1] (100 μM TAT-Gap19, 5 Gy at 6 h p.i., 5 and 0.1 Gy at 72 h p.i., including control response) is “inhibited”. In the assay on TIME cells [1] (100 μM TAT-Gap19, control and 0.1 Gy, 6 h p.i.), the dextran fluorescein staining result is reported as “small increase”. Further, the GDF-15 result with TIME cells [2] (100 μM TAT-Gap19, 0, 0.1 and 5 Gy) is “significantly inhibited these responses in all treated conditions”. Moreover, the IGFBP-7 control readout result in the assay on TIME cells [2] (100 μM TAT-Gap19, 0 Gy control) was “increased”. Besides, in the assay on TIME cells [2] (100 μM TAT-Gap19, 0.1 Gy), the IGFBP-7 entry was “acted in a significantly inhibitory way”. Besides, in the assay with TIME cells [2] (100 μM TAT-Gap19, 5 Gy), the “IGFBP-7 (radiation-induced increase)” value is “not inhibited”.
